From patent US20040192625A1, “Adrenergic receptor overexpression in airway tissues for the treatment of airway obstructive diseases” (priority 2000, published 2004)
Values joined by “and” are separate entries in the source; they are usually repeats but may differ in a detail not shown here. Equal entries are not always repeated. “Also recorded” adds a separate entry of the source. Blank lines part the entries; values can stand above or below the compound they belong to.

Assays:
tracheal rings = test: Ex vivo tracheal ring contractility / relaxation (organ bath)
Protocol: Ex vivo assessment of airway function in transgenic and nontransgenic mice. Tracheal contractility was measured using ring preparations that were mounted on wires connected to pressure transducers and immersed in organ baths. The absolute contractile force evoked by acetylcholine is shown in (A). […] Rings were pre-contracted to the same extent with 10 μM acetylcholine for these studies. […] Curves shown represent the mean±SE of data generated from four different mice in each group.
Ex vivo Smooth Muscle Studies. […] Briefly, tracheas were excised and dissected free of surrounding tissues and cut into rings of approximately 5 mm in length. The trachea rings were mounted on stainless steel wires connected to isometric force transducers. […] Each tracheal ring was stretched to a tension of 5 mN, an optimal passive tension for maximizing active force (27). After a 20 min equilibration period, contraction/relaxation cycles with 10 μM acetylcholine were performed until consistent forces were observed. Cumulative concentration-isometric force curves were then generated to acetylcholine (1 nM-30 μM). After rinsing, tracheas were contracted with 10 μM acetylcholine (approximately the ED80) and cumulative concentration-relaxation curves were generated to isoproterenol (30 pM-10 μM). Concentration-response relations were fitted to a logistic equation (26).

[1] = system: airway responsiveness in conscious, unrestrained mice; test: In vivo airway responsiveness to methacholine by whole body plethysmography (Penh); set-up: species or system mouse; conditions: for maximal Penh to methacholine after albuterol pretreatment: aerosolized albuterol 0.1 mg/ml for 20 min; for maximal Penh (bronchoconstriction induced by methacholine): no pretreatment
Protocol: FIG. 9. In vivo measurement of airway hyperreactivity in conscious, unrestrained mice. Airway responsiveness to methacholine was assessed using a rodent whole body plethysmography system to measure Penh (see EXPERIMENTAL PROCEDURES). The mice were first treated with aerosolized PBS to establish baseline function, which was then followed by increasing doses of aerosolized methacholine. On a separate day, the same mice were first pretreated with aerosolized albuterol (0.1 mg/ml) for 20 min. Penh values are reported as percent of the PBS (baseline) value. Bronchoconstriction was greatest in the untreated, NTG control mice (n=12) with a maximal increase in Penh of 558±42%. Pretreatment with albuterol lowered the maximal increase in Penh to 373±33% (p<0.02). The maximum Penh achieved in the transgenic mice (250±26%, n=9) was less than that of both the untreated (p<0.001) and the pretreated NTG mice (p<0.02).
In Vivo Airway Physiology. Airway responsiveness to methacholine was measured noninvasively in conscious, unrestrained mice using a whole body plethysmograph (Buxco Electronics, Troy N.Y.) (28). Using this system, the volume changes that occur during a normal respiratory cycle are recorded as the pressure difference between the animal-containing chamber and a reference chamber. The resulting signal is used to calculate respiratory frequency, minute volume, tidal volume, and enhanced pause (Penh). Penh is a unitless value that is a function of the peak inspiratory (PIP) and peak expiratory (PEP) pressures and the timing of expiration and is calculated as: […]
where Pause is the ratio of time spent in the last third of expiration relative to early expiration. […] Mice were placed in the chamber and allowed to adjust to their surroundings for 10 min. They were then exposed to aerosolized PBS (to establish baseline), followed by increasing concentrations of methacholine (2.5 to 80 mg/ml). Aerosolization was for 3 min and respiratory measurements were recorded and averaged for the subsequent 5 min after each dose. The degree of bronchoconstriction was expressed as the percent change in Penh relative to the PBS baseline. On a separate day, the mice were submitted to the same protocol except that they were first treated with aerosolized albuterol (0.1 mg/ml) for 20 min. The concentration-response data for each individual mouse were fit to a sigmoid curve by an iterative least squares technique, and the dose of methacholine required to double baseline Penh (ED200) was derived.

β2AR [2] = conditions: membranes from nontransgenic cells, absence of GTP
Protocol: Radioligand Binding and cAMP Studies. To prepare membranes from lung tissue, lungs from an individual mouse were homogenized with a Polytron (Brinkman) in 10 ml of hypotonic lysis buffer (5 mM Tris, pH 7.4, 2 mM EDTA) containing the protease inhibitors leupeptin, aprotinin, benzamidine and soybean trypsin inhibitor (10 μg/ml each). Detached smooth muscle cells from primary cultures were processed similarly. Homogenates were centrifuged at 40,000×g for 10 min at 4° C. […] Competition data were fit to a two-site model when this fit was statistically (p<0.05) better than a one-site fit by F-test, using Prizm software (GraphPad, San Diego Calif.). Receptor density on the cell surface was assessed using methods previously described (24). […] After trypsin activity was neutralized by the addition of FCS, the cells were washed with PBS and resuspended in DMEM. […] Bound radioactivity was separated by filtration and washing over GF/C glass fiber filters. Cyclic AMP content of attached mouse smooth muscle cells in culture exposed to 10 µM isoproterenol or carrier for 10 min was measured by an acetylated radioimmunoassay method as described (19). Adenylyl cyclase activity was measured in membranes prepared as above using column chromatography as previously described (25).

β2AR [3] = target: β2AR (Mus musculus, UniProt P18762)
β2AR (Mus musculus, UniProt P18762), sequence (P18762 whole entry): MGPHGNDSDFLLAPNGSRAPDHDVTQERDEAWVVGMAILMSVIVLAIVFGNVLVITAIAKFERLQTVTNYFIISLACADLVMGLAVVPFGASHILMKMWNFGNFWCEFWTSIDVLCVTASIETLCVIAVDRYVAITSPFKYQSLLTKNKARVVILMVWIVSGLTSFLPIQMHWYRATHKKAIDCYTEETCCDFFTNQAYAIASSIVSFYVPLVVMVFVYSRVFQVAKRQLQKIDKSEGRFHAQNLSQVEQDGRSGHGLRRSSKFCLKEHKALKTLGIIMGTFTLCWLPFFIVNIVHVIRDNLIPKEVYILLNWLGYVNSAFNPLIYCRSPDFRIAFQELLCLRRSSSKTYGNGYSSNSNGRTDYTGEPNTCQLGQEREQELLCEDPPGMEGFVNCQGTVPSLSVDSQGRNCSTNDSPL
Protocol: (§1) FIG. 7. cAMP production and adenylyl cyclase activity in isolated tracheal smooth muscle cells. […] Results are from four independent experiments. (B) Adenylyl cyclase activity was measured in membranes prepared from tracheal smooth muscle cells of transgenic and nontransgenic mice. Reactions were carried out in the presence of the indicated concentrations of isoproterenol for 10 min at 37° C. Detection of [^32P]cAMP produced was determined by column chromatography. Shown is a representative dose response curve.
Radioligand Binding and cAMP Studies. To prepare membranes from lung tissue, lungs from an individual mouse were homogenized with a Polytron (Brinkman) in 10 ml of hypotonic lysis buffer (5 mM Tris, pH 7.4, 2 mM EDTA) containing the protease inhibitors leupeptin, aprotinin, benzamidine and soybean trypsin inhibitor (10 μg/ml each). […] Receptor density on the cell surface was assessed using methods previously described (24). […] Bound radioactivity was separated by filtration and washing over GF/C glass fiber filters. Cyclic AMP content of attached mouse smooth muscle cells in culture exposed to 10 µM isoproterenol or carrier for 10 min was measured by an acetylated radioimmunoassay method as described (19). Adenylyl cyclase activity was measured in membranes prepared as above using column chromatography as previously described (25).

adenylyl cyclase = test: Adenylyl cyclase activity in tracheal smooth muscle cell membranes; assay type: biochemical, mouse; conditions: for maximal isoproterenol stimulated adenylyl cyclase activity: 10 μM isoproterenol, n=4
Protocol: as §1
Radioligand Binding and cAMP Studies. To prepare membranes from lung tissue, lungs from an individual mouse were homogenized with a Polytron (Brinkman) in 10 ml of hypotonic lysis buffer (5 mM Tris, pH 7.4, 2 mM EDTA) containing the protease inhibitors leupeptin, aprotinin, benzamidine and soybean trypsin inhibitor (10 μg/ml each). Detached smooth muscle cells from primary cultures were processed similarly. Homogenates were centrifuged at 40,000×g for 10 min at 4° C. […] Competition data were fit to a two-site model when this fit was statistically (p<0.05) better than a one-site fit by F-test, using Prizm software (GraphPad, San Diego Calif.). Receptor density on the cell surface was assessed using methods previously described (24). […] After trypsin activity was neutralized by the addition of FCS, the cells were washed with PBS and resuspended in DMEM. […] Binding to receptors localized throughout the cell was defined as that displaced by propranolol, while cell surface binding was defined as that displaced by CGP12177 (24). Bound radioactivity was separated by filtration and washing over GF/C glass fiber filters. Cyclic AMP content of attached mouse smooth muscle cells in culture exposed to 10 µM isoproterenol or carrier for 10 min was measured by an acetylated radioimmunoassay method as described (19). Adenylyl cyclase activity was measured in membranes prepared as above using column chromatography as previously described (25).

[4] = target: stimulatory guanine nucleotide binding protein (Gs) (mouse) (UniProt P63094); test: cell-based or functional assay
stimulatory guanine nucleotide binding protein (Gs) (mouse), sequence (P63094 2-394): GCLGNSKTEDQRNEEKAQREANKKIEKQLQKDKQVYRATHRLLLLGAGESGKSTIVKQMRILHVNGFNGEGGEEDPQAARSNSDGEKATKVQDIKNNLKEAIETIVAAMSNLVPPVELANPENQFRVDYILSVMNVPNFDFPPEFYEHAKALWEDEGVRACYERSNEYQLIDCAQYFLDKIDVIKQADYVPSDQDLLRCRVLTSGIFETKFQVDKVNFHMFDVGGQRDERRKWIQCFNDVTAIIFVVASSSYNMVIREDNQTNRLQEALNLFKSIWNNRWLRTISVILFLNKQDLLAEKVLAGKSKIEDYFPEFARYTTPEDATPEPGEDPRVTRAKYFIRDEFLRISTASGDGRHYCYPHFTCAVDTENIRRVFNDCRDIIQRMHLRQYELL

Compound: Cc1ccc(OCC(O)C(C)NC(C)C)c2c1CCC2 (stereo not drawn) [ICI 118,551]
effect on enhanced isoproterenol-induced relaxation in SMP8-β2AR mice (tracheal rings; pretreatment 0.1 μM): blocked; also recorded: abolished

Compound: CC(C)(C)NCC(O)c1ccc(O)c(CO)c1 (stereo not drawn) [albuterol]
methacholine-induced increase in Penh after albuterol pretreatment ([1]; SMP8-β2AR mice, methacholine up to 80 mg/ml): no increase in Penh; also recorded: no methacholine-induced bronchoconstriction was observed | maximal Penh to methacholine after albuterol pretreatment ([1]; SMP8-β2AR transgenic mice): 146±12 % of baseline and 138±11 % of baseline | maximal Penh to methacholine after albuterol pretreatment ([1]; nontransgenic mice): 373±33 % of baseline

Compound: CC(C)NCC(O)c1ccc(O)c(O)c1 (stereo not drawn) [isoproterenol]
proportion of receptors in the high affinity state (% RH) (β2AR [2]): 36±6.7% | isoproterenol-stimulated cAMP content (β2AR [3]; nontransgenic airway smooth muscle cells, 10 min, n=5): 2.05 ± 0.10 pmol/mL | isoproterenol-stimulated cAMP, percent-stimulation over basal (β2AR [3]; nontransgenic cells): ~50% | percent isoproterenol stimulation of adenylyl cyclase over basal (adenylyl cyclase; nontransgenic membranes): ~46% | maximal isoproterenol stimulated adenylyl cyclase activity (adenylyl cyclase; nontransgenic membranes): 251 ± 7.3 pmol/min/mg | percent isoproterenol stimulation of adenylyl cyclase over basal (adenylyl cyclase; transgenic membranes): ~125% | maximal isoproterenol stimulated adenylyl cyclase activity (adenylyl cyclase; transgenic membranes): 609 ± 74.7 pmol/min/mg | maximal Penh to methacholine after acute albuterol in mice pretreated with isoproterenol ([1]; SMP8-β2AR transgenic mice, isoproterenol by osmotic minipump for three continuous days): 128±1 % of baseline | maximal extent of relaxation, transgenic vs nontransgenic rings (tracheal rings; isoproterenol, rings pre-constricted with 10 μM acetylcholine): equivalent

Compound: CC(=O)OC(C)C[N+](C)(C)C (stereo not drawn) [methacholine]
maximal Penh (bronchoconstriction induced by methacholine) ([1]; SMP8-β2AR transgenic mice, n=9): 250±26 % of baseline | ED200 (dose of methacholine required to double baseline Penh) ([1]; SMP-β2AR mice): 35.7 ± 10.6 mg/mL | ED200 (dose of methacholine required to double baseline Penh) ([1]; nontransgenic mice): 12.1 ± 1.90 mg/mL | maximal Penh (bronchoconstriction induced by methacholine) ([1]; nontransgenic mice, n=12): 558±42 % of baseline

proportion of receptors in the high affinity state (% RH), isoproterenol competition of [125I]CYP binding in the absence of GTP [4]: 36%
Compound: endogenous β-adrenergic receptor of tracheal smooth muscle cells from nontransgenic mice (from UniProt P18762 1-418)
